Data set [1] relates to male mice fed with low-calcium diet. In words: Measurement of bone resorption inhibitory activity (decrease in serum calcium in low-calcium diet mice). Particulars: low-calcium diet 7 days, 100 mg/kg oral, 4 hours after administration, vs control group. The data set is classed as in vivo. As to the method:
The measurement was performed by the same method as described in JP 2000-204071 A (Patent Literature 1). Specifically, male mice (23 to 25 g weight, 8 mice per group) were fed with low-calcium diet (0.1% calcium diet) for 7 days. […] The rate (%) of decrease in serum calcium was determined by comparison with the control group.
It should be noted that the data of the rate (%) of decrease in serum calcium as to comparative compounds 1 to 15 are the values shown in JP 2000-204071 A (Patent Literature 1).

In data set [2] the target is T1, CYP3A4 (Homo sapiens, UniProt P08684). In words: biochemical.
Procedure: (§1) A reaction mixture was prepared by mixing the compound of the present invention with midazolam as a typical substrate for CYP3A4 (see Food and Drug Administration (FDA) Guidance for Industry Drug Interaction Studies—Study Design, Data Analysis, Implications for Dosing, and Labeling Recommendations. FDA web site [online], www.fda.gov/downloads/drugs/guidancecomplianceregulatoryinformation/guidances/ucm292362.pdf), coenzyme NADPH-generating system, human hepatic microsomes, and a phosphate buffer. The reaction mixture was incubated at 37° C. for 10 minutes.
(§2) The coenzyme NADPH-generating system solution was prepared by mixing the materials shown in Table 1: the 13 mmol/L β-NADP^+ solution, the 33 mmol/L G-6-P solution, the solution of 10 U/mL G6PDH (Y) (manufactured by Oriental Yeast Co., Ltd.), and the 33 mmol/L MgCl2 solution in a ratio of 1:1:0.4:1 (v:v:v:v).
(§3) After the incubation, the reaction was quenched by the addition of an acetonitrile solution to the reaction mixture. The amount of 1′-hydroxymidazolam produced (the metabolite produced from midazolam by CYP3A4) was measured in the quenched sample with a high-performance liquid chromatography tandem mass spectrometer (LC-MS/MS). Each IC50 value for DI (direct inhibition) was determined from the amount of the produced 1′-hydroxymidazolam and the final concentration of the compound of the present invention or the comparative compound in the reaction mixture.
(§4) MBI (mechanism based inhibition) was evaluated as follows. After the reaction mixture not containing midazolam (but containing the compound of the present invention or the comparative compound, the coenzyme NADPH-generating system, the human hepatic microsomes, and the phosphate buffer) was pre-incubated at 37° C. for 30 minutes, midazolam was added to the reaction mixture. The reaction mixture was then incubated at 37° C. for 10 minutes. Subsequently, the reaction was quenched by the addition of an acetonitrile solution to the reaction mixture. The amount of 1′-hydroxymidazolam produced was measured in the quenched sample with an LC-MS/MS. As in the case of DI, each IC50 value for MBI was determined from the amount of the produced 1′-hydroxymidazolam and the final concentration of the compound of the present invention or the comparative compound in the reaction mixture.
Data set [3] addresses T2, Cathepsin K (Oryctolagus cuniculus, UniProt P43236).
T2 sequence (P43236 115-329): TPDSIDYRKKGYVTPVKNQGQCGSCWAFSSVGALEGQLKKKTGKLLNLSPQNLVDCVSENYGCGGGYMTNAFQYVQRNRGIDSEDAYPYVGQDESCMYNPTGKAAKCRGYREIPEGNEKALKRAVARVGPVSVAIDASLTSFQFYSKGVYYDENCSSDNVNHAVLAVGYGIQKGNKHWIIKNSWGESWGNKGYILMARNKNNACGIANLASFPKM
In words: Measurement of cathepsin K inhibitory activity (fluorescent substrate Z-Gly-Pro-Arg-MCA). Particulars: for CYP/CatK: ratio of IC50 for CYP3A4 inhibitory activity (MBI) to IC50 for cathepsin K inhibitory activity.
Procedure: (§5) Specifically, the decomposition of 20 μM Z-Gly-Pro-Arg-MCA by cathepsin K was measured in 100 mM potassium sodium phosphate, 1 mM EDTA, 8 mM Cysteine, pH 6.0. The reaction was performed at 37° C. for 30 minutes and then quenched by the addition of 2×10^−5 M of calpeptin. After the reaction was quenched, the intensity of fluorescence was measured at an excitation wavelength of 355 nm and a measurement wavelength of 460 nm.

For data set [4], the target named is T2, Cathepsin K.
Procedure: as §5
The subject of data set [5] is male mice fed with low-calcium diet. Particulars: values shown in JP 2000-204071 A (Patent Literature 1); cited from earlier work.
Data set [6] concerns the target T1, CYP3A4.
Procedure: as §1, §2, §3, §4
Setting [7] is: read-out: CatK Inhibitory IC50, 20 μM Z-Gly-Pro-Arg-MCA, pH 6.0, 37° C., 30 minutes.
[8] abbreviates: read-out: CYP3A4 Inhibitory IC50 DI, DI (direct inhibition), human hepatic microsomes, midazolam, 37° C. 10 minutes.
Where [9] appears, read: read-out: CYP3A4 Inhibitory IC50 MBI, MBI (mechanism based inhibition), 30 minutes pre-incubation with NADPH-generating system before midazolam.

Where “and” joins values, the source holds several entries; their conditions need not be identical. Equal entries are not always repeated. Where two headings read alike, the source gives them in different places.

This is an account of results in patent US20160375031A1, “ALPHA-OXOACYL AMINO-CAPROLACTAM DERIVATIVE” (Seikagaku Corporation, priority 2013, published 2016).

T1 sequence (P08684 whole entry): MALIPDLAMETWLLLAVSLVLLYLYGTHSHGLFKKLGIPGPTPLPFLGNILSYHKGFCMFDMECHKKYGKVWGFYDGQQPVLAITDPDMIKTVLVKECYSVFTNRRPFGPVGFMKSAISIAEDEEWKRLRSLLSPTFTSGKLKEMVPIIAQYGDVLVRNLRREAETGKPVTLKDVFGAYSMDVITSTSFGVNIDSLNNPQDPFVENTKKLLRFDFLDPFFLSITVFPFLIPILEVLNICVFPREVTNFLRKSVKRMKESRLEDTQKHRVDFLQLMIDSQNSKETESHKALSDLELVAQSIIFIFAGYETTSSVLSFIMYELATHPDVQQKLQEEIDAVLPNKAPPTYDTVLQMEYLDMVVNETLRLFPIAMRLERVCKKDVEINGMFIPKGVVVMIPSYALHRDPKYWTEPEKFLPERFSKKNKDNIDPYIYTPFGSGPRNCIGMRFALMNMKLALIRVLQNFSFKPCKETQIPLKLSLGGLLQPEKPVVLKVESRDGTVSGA

Broadly, the IC50 is the concentration needed to halve the response being measured. For `CC(C)[C@H](NC(=O)C1(NC(=O)OC2CCOCC2)CCCCC1)C(=O)C(=O)N[C@H]1CCCCNC1=O` [Compound 1, [1-[[[(1S)-3-[[(3S)-hexahydro-2-oxo-1H-azepin-3-yl]amino]-1-(1-methylethyl)-2,3-dioxopropyl]amino]carbonyl]cyclohexyl]carbamic acid tetrahydro-2H-pyran-4-yl ester], the “Rate of Decrease in Serum Ca” value in data set [1] is on record as 6.2%. Also, the IC50 on CYP3A4 [2] was > 100 µM and 80 µM; at Cathepsin K [3], 0.56 nM. At Cathepsin K [4], this compound came in with a CYP/CatK of 141739.

For the compound `COC(=O)N1CCC(OC(=O)NC2(C(=O)N[C@H](C(=O)C(=O)N[C@H]3CCCCNC3=O)C(C)C)CCCCC2)CC1` [Compound 2, [1-[[[(1S)-3-[[(3S)-hexahydro-2-oxo-1H-azepin-3-yl]amino]-1-(1-methylethyl)-2,3-dioxopropyl]amino]carbonyl]cyclohexyl]carbamic acid 1-(methoxycarbonyl)-4-piperidinyl ester], in data set [1], the “Rate of Decrease in Serum Ca” value is on record as 5.6%. The IC50 at CYP3A4 [2] is 55.6 µM and 23 µM; at Cathepsin K [3], 0.52 nM. In addition, at Cathepsin K [4], the CYP/CatK was 44231.

As to “[1-[[[(1S)-3-[[(3S)-hexahydro-2-oxo-1H-azepin-3-yl]amino]-1-(1-methylethyl)-2,3-dioxopropyl]amino]carbonyl]cyclohexyl]carbamic acid 1-(methoxycarbonyl)-4-piperidinyl ester [Compound 2]”, the “Rate of Decrease in Serum Ca” value in data set [5] is reported as 4.71%. Also, the CYP/CatK at Cathepsin K [3] is listed as 122. The 50% inhibitory concentration (IC50) at Cathepsin K [3] (setting [7]) was determined as 13 nM; on CYP3A4 [6] (setting [8]), 9.31 µM; at CYP3A4 [6] (setting [9]) it was 1.53 µM.

As for “[1-[[[(1S)-3-[[(3S)-hexahydro-2-oxo-1H-azepin-3-yl]amino]-1-(1-methylethyl)-2,3-dioxopropyl]amino]carbonyl]cyclohexyl]carbamic acid tetrahydro-2H-pyran-4-yl ester [Compound 1]”, in data set [5], the “Rate of Decrease in Serum Ca” value was 5.39%. In addition, the CYP/CatK on Cathepsin K [3] is listed as 207. Also, the figures for the 50% inhibitory concentration (IC50) at Cathepsin K [3] (setting [7]), on CYP3A4 [6] (setting [8]) and at CYP3A4 [6] (setting [9]) were 16 nM, 11.7 µM and 3.36 µM, respectively.
